Each block holds one compound with its values, some of them ahead of it. Calls of active or inactive are those of the source.
What was measured:
[1] = biological target: T1, Ubiquitin-conjugating enzyme E2 N (Homo sapiens, UniProt P61088); format: functional;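 note: Dose-response confirmation in a TR-FRET assay detecting UBC13-driven polyubiquitin chain formation, inhibition measured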
T1 sequence (P61088 whole entry): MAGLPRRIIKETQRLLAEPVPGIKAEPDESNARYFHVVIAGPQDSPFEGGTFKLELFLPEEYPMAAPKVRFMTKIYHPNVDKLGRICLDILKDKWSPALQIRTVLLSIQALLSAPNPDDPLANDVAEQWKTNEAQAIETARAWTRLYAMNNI

[2] = biological target: T2, Low molecular weight phosphotyrosine protein phosphatase (Homo sapiens, UniProt P24666); format: functional; settings: read-out: IC50_Mean;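 note: Dose-response confirmation assay measuring inhibition of LMPTP enzyme activity by fluorescence intensity read-out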
T2 sequence (P24666 whole entry): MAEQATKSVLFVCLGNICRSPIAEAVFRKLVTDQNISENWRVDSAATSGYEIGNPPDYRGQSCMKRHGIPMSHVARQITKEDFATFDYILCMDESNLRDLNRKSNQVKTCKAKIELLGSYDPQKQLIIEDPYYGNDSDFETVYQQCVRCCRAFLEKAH

Albumin = Albumin (Bos taurus, UniProt P02769); assay: Counterscreen for inhibitors of T-cell receptor (TCR)-CD3 interaction: Fluorescence-based biochemical high throughput dose response assay to identify inhibitors of T-cell receptor (TCR)-CD3 interaction using a TAMRA-labeled BSA probe.; format: functional
[3] = biological target: T3, DNA repair protein RAD52 homolog (Homo sapiens, UniProt P43351); format: functional, biochemical
T3 sequence (P43351 whole entry): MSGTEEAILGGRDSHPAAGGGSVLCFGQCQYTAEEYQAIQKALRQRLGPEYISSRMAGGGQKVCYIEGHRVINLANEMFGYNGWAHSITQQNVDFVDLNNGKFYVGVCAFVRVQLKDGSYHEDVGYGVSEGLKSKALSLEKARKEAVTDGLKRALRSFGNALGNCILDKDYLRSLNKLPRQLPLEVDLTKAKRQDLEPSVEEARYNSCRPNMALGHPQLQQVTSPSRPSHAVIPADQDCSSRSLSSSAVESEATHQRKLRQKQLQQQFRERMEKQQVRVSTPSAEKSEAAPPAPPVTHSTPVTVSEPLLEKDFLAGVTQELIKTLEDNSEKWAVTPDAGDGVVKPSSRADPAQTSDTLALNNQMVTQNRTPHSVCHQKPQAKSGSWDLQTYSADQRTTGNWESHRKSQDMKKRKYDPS

[4] = biological target: T4, Corticotropin-releasing factor receptor 2/Corticotropin-releasing factor-binding protein (Homo sapiens, UniProt P24387+Q13324); assay: Dose Response confirmation of uHTS hits for small molecule antagonists of the CRF-binding protein and CRF-R2 receptor complex.; format: functional; settings: read-out: IC50_Mean
T4 sequence (Q13324 whole entry): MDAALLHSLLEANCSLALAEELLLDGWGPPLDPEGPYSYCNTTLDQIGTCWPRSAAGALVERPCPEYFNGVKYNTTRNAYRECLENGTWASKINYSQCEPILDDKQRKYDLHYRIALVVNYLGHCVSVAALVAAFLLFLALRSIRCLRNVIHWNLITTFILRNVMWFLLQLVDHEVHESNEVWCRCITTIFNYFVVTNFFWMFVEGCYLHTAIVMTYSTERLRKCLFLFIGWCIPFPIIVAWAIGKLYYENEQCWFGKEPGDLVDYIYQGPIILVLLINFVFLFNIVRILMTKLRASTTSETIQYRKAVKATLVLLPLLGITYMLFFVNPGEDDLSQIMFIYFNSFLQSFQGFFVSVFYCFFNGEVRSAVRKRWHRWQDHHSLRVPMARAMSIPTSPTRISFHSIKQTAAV
T4 sequence (P24387 whole entry): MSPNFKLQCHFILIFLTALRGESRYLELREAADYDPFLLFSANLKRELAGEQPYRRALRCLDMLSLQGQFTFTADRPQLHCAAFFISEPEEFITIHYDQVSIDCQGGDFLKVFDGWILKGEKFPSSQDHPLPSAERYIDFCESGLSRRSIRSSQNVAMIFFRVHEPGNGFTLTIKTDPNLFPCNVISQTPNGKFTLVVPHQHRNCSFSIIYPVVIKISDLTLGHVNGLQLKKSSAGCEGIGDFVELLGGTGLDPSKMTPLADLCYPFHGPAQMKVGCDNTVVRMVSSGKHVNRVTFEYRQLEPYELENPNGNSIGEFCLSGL

[5] = biological target: T4, Corticotropin-releasing factor receptor 2/Corticotropin-releasing factor-binding protein; assay: activators of CRF receptor 2 with binding protein – uHTS hits, confirmation (AID 602473); format: functional; settings: read-out: EC50_Mean
[6] = blockers of CRF-binding protein–CRF-R2 complex – cell-based, uHTS hits, 384-well, dose response (AID 651639); format: functional, Homo sapiens; settings: read-out: IC50_Mean
[7] = biological target: Tyrosine-protein phosphatase non-receptor type 11 (Homo sapiens, UniProt Q06124); assay: PTPN11 enzyme inhibitors – biochemical, selectivity assay for STEP inhibitor project, dose response (AID 602367); format: functional; settings: read-out: IC50_Mean
[8] = biological target: Tyrosine-protein phosphatase non-receptor type 5 (Homo sapiens, UniProt P54829); assay: PTPN5 enzyme inhibition – biochemical, fluorescence intensity, uHTS hits, confirmation (AID 602372); format: functional; settings: read-out: IC50_Mean
[9] = biological target: Dual specificity protein phosphatase 3 (Homo sapiens, UniProt P51452); assay: VHR phosphatase inhibition, dose response, selectivity assay for STEP inhibitor project, biochemical (AID 602374); format: functional; settings: read-out: IC50_Mean
Caspase-3 = biological target: T5, Caspase-3 (Homo sapiens, UniProt P42574); format: functional;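 note: Dose-response selectivity test against caspase-3 for candidate inhibitors of sentrin-specific proteases (SENPs)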
T5 sequence (P42574 whole entry): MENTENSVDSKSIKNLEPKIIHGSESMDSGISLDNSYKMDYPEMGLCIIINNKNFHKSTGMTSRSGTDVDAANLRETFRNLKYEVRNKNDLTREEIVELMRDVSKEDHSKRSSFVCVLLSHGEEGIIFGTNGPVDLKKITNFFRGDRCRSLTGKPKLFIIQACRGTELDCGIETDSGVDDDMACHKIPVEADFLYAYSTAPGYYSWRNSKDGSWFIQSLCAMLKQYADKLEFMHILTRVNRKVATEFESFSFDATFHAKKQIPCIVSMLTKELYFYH

[10] = biological target: T6, Sentrin-specific protease 7 (Homo sapiens, UniProt Q9BQF6); format: functional;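 note: Luminescence-based dose-response confirmation of ultra-high-throughput screening hits, measuring inhibition of SENP7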
T6 sequence (Q9BQF6 whole entry): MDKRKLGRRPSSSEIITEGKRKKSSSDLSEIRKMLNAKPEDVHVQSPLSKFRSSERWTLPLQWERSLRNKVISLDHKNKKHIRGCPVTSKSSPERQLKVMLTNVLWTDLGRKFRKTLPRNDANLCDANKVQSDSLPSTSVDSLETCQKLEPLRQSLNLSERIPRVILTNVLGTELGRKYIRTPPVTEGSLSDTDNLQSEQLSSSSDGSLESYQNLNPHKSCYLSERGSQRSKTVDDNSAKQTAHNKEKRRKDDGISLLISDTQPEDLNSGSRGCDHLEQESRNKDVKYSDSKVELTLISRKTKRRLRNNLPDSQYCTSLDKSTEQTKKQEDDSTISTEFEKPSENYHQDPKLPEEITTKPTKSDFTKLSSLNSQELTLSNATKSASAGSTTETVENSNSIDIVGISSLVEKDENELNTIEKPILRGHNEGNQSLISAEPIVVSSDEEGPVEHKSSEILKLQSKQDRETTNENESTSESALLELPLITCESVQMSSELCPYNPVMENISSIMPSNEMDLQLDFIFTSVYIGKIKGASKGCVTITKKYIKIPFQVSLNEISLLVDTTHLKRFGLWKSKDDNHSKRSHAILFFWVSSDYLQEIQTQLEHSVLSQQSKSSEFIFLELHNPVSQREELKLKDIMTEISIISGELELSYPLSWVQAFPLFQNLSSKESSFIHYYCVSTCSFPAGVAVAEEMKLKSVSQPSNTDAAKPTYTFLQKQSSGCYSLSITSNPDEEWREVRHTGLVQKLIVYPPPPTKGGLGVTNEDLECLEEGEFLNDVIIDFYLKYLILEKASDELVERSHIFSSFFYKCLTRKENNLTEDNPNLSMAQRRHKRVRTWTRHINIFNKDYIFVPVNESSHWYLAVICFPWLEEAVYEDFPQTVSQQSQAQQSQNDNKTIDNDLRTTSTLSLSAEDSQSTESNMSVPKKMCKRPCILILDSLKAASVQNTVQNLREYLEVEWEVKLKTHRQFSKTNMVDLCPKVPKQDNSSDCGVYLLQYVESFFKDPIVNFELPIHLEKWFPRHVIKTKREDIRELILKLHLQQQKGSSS

[11] = biological target: T7, Sentrin-specific protease 6 (Homo sapiens, UniProt Q9GZR1); format: functional;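 note: Luminescence-based dose-response confirmatory assay of SENP6 inhibition, following up an ultra-high-throughput screen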
T7 sequence (Q9GZR1 whole entry): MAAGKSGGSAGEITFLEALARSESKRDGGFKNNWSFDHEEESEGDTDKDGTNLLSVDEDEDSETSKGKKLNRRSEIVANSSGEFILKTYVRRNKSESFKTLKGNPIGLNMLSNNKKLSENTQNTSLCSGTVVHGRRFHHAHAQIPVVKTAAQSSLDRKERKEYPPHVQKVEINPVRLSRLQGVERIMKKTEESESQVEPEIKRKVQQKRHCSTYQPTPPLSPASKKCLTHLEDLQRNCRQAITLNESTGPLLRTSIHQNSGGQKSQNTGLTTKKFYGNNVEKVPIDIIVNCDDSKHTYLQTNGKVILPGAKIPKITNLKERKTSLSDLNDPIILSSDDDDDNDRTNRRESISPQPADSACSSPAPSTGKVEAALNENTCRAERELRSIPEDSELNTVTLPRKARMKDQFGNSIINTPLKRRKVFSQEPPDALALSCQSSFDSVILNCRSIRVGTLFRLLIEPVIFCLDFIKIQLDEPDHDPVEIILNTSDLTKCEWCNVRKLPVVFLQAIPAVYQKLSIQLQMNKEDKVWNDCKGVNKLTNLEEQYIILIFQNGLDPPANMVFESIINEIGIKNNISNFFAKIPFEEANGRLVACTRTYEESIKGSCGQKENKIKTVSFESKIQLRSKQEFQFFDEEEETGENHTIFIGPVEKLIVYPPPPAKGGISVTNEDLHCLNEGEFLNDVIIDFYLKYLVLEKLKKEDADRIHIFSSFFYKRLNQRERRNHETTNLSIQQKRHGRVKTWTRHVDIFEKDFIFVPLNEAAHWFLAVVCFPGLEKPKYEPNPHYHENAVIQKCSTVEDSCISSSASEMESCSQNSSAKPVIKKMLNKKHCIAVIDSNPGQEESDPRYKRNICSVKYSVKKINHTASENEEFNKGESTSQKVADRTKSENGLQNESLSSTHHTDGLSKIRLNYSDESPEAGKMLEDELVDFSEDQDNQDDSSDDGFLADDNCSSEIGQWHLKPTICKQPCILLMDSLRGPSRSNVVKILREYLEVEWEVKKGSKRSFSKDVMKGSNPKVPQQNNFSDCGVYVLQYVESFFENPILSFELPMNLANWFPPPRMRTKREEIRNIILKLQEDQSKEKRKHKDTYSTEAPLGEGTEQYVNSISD

[12] = biological target: T8, Sentrin-specific protease 8 (Homo sapiens, UniProt Q96LD8); format: functional;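 note: luminescence read-out of SENP8 inhibition, dose-response confirmation following an ultra-high-throughput screen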
T8 sequence (Q96LD8 whole entry): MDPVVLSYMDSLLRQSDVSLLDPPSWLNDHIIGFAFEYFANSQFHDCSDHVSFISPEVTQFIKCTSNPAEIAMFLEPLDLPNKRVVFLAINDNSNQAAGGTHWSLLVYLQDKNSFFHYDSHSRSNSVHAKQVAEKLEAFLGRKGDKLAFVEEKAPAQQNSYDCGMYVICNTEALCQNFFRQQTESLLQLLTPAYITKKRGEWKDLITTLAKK

[13] = biological target: T9, Mitochondrial peptide methionine sulfoxide reductase (Bos taurus, UniProt P54149); assay: Absorbance-based biochemical high throughput dose response assay for activators of Methionine sulfoxide reductase A (MsrA).; format: functional
T9 sequence (P54149 whole entry): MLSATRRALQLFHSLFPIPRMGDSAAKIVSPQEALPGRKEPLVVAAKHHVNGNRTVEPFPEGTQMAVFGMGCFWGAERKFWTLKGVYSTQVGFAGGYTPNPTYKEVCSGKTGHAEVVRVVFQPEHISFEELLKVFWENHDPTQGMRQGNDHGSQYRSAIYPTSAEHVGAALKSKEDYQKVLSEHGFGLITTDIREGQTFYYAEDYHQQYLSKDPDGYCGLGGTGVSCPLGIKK

[14] = biological target: DNA repair and recombination protein RAD54-like (Homo sapiens, UniProt Q92698); assay: RAD54 Holliday junction migration blockers – biochemical, fluorescence, cherry-picked samples, dose series, confirmation (AID 651657); format: functional
[15] = biological target: DNA (cytosine-5)-methyltransferase 1 (Homo sapiens, UniProt P26358); assay: inhibition of DNA methylation by DNMT1 – biochemical, fluorescent molecular beacon, confirmation (AID 602386); format: functional
Sequence of DNA (cytosine-5)-methyltransferase 1 (P26358 whole entry): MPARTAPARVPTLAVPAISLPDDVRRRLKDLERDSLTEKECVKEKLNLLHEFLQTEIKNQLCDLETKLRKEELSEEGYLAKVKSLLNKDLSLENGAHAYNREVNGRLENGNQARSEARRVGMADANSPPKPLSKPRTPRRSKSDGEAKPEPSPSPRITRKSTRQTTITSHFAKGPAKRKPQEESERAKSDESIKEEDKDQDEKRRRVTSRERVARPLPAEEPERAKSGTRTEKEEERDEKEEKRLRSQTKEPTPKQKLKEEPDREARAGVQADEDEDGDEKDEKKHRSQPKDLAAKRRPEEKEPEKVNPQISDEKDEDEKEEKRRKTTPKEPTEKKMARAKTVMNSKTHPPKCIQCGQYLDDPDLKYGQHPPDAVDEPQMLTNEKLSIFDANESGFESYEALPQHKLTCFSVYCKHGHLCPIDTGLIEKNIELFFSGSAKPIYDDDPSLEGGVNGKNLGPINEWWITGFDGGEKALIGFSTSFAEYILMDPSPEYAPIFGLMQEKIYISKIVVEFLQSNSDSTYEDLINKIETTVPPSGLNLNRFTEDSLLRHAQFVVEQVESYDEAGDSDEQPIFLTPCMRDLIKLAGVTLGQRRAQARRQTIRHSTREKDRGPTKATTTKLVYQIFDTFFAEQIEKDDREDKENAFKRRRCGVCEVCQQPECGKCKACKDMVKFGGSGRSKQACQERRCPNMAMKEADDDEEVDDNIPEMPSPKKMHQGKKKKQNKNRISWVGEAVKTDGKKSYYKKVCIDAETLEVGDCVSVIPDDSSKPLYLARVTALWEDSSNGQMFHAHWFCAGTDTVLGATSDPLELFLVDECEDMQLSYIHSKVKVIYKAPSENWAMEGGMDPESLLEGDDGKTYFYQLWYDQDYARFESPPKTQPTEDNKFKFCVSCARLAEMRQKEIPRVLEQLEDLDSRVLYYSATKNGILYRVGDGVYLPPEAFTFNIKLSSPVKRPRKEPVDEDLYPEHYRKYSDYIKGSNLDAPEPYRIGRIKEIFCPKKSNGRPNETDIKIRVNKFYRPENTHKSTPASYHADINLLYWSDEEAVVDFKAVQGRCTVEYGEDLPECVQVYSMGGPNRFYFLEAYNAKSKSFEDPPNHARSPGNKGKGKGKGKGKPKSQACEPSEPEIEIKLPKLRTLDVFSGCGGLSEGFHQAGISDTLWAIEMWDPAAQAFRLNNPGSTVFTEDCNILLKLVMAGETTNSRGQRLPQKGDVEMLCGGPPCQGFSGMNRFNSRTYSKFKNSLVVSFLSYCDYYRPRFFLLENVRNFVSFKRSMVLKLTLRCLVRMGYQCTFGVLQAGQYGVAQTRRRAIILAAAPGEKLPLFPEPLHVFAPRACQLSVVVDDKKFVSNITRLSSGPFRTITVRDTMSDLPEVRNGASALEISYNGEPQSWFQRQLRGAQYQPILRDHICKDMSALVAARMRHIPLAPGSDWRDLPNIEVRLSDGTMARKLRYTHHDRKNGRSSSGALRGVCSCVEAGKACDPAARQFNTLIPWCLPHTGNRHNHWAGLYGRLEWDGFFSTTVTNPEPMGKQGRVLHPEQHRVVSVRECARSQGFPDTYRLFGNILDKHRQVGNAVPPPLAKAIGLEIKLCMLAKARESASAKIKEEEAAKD

Sequence of Dual specificity protein phosphatase 3 (P51452 whole entry): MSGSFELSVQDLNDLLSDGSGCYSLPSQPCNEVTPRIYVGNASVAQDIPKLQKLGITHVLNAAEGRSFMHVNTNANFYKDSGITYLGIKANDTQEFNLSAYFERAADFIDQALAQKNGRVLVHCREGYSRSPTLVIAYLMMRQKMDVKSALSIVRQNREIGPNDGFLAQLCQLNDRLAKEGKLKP
Sequence of Tyrosine-protein phosphatase non-receptor type 5 (P54829 whole entry): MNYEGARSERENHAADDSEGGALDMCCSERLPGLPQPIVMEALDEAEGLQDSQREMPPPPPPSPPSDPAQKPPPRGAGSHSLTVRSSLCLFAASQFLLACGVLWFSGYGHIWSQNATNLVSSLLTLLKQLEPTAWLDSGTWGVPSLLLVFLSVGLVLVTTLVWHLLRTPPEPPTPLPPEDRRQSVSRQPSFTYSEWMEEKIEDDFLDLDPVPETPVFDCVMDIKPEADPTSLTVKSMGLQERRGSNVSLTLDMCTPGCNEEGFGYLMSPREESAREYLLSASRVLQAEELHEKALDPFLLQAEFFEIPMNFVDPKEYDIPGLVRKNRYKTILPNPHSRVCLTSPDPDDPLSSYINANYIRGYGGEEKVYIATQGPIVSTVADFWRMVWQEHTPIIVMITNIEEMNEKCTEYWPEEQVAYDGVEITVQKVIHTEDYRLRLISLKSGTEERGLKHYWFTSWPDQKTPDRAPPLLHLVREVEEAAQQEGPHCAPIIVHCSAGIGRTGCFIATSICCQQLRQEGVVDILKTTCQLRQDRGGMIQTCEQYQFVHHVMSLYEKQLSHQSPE
Sequence of DNA repair and recombination protein RAD54-like (Q92698 whole entry): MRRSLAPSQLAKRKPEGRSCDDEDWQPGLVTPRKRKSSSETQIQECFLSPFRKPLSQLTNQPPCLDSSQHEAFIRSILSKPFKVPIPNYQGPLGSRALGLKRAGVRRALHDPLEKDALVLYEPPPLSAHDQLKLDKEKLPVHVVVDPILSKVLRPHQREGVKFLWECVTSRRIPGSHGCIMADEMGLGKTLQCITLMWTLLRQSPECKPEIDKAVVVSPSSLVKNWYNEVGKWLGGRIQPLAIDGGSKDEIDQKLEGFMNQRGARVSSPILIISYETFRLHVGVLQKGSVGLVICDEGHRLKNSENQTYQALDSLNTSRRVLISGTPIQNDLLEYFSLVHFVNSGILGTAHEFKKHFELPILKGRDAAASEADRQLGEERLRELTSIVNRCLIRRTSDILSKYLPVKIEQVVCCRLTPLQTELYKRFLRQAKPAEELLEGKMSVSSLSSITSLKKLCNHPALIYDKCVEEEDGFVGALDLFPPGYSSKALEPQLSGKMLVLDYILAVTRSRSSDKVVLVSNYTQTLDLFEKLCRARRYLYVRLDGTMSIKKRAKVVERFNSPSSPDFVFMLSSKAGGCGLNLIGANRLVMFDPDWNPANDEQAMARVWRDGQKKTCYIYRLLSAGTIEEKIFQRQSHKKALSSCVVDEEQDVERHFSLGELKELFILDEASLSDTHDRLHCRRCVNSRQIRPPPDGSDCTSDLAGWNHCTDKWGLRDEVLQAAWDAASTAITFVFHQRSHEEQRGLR
Sequence of Albumin (P02769 whole entry): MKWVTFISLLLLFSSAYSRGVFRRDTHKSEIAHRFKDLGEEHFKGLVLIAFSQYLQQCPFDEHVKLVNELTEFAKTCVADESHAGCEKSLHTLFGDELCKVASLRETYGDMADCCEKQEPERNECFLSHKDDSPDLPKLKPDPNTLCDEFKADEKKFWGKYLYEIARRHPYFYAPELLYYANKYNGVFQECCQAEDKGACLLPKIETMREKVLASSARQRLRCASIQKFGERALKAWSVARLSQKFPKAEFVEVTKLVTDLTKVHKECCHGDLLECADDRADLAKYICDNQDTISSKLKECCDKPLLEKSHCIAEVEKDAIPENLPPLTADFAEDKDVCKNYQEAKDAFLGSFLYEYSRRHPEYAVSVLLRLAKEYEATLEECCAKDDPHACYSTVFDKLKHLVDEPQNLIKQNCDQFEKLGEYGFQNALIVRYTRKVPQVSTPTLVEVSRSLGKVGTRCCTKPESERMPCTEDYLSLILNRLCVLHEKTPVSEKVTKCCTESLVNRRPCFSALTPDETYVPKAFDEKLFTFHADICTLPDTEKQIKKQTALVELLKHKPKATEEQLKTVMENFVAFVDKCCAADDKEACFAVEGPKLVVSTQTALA

IC50 [1]: > 20 µM (inactive)
IC50 [2]: 16 µM (active)
IC50 (Albumin): > 94.1 µM (inactive)
AC50 [3]: 7.05 µM (active)
Compound: Cc1ccc(-c2nc3cc(C(=O)NCCCn4ccnc4)ccc3c(O)c2O)cc1

IC50 [4]: < 0.368 µM (active)
EC50 [5]: > 53 µM (inactive)
IC50 [6]: 11.1 µM (active)
Compound: O=C(COC(=O)C1(c2ccc(F)cc2)CCCC1)NCc1ccc2c(c1)OCO2

IC50 [7]: 2.07 µM (active)
IC50 [8]: 20.8 µM (inactive)
IC50 [9]: 1.03 µM (active)
Compound: COc1cc(Cl)ccc1N=C(S)N(CCCN1CCOCC1)Cc1cn(C)c2ccccc12

IC50 (Caspase-3): 17.1 µM (active)
IC50 [10]: 9.28 µM (active)
IC50 [11]: 6.27 µM (active)
EC50 [13]: 40 µM (inactive)
Compound: COc1ccc(S(=O)(=O)N2CCOCC2)cc1NC(=O)COC(=O)c1ccc([N+](=O)[O-])s1
IC50 [12]: 6.06 µM (active)

AC50 [14]: 70.3 µM (active)
Compound: O=C(Nc1ccccc1)c1cc(S(=O)(=O)N2CCOCC2)cs1

Compound: O=C1Nc2c(Cl)cc(Cl)cc2C1=O
IC50 [15]: 11.8 µM (active)
EC50 [13]: > 104 µM (inactive)

From ChEMBL document CHEMBL1201862, “PubChem BioAssay data set” (2004)
